Reference: patent publication US8258311B2, “Human protein tyrosine phosphatase inhibitors and methods of use” (Aerpio Therapeutics Inc., priority 2006, dated 2012)
pIC50: −log10 of the molar value.

Tests used:
HPTPβ = HPTPβ (Homo sapiens, UniProt P23467); assay: HPTPβ inhibition (IC50); type: biochemical
PTP1B = target: T1, PTP1B (Homo sapiens, UniProt P18031); assay: PTP1B inhibition (IC50); type: biochemical
T1 sequence (P18031 1-435): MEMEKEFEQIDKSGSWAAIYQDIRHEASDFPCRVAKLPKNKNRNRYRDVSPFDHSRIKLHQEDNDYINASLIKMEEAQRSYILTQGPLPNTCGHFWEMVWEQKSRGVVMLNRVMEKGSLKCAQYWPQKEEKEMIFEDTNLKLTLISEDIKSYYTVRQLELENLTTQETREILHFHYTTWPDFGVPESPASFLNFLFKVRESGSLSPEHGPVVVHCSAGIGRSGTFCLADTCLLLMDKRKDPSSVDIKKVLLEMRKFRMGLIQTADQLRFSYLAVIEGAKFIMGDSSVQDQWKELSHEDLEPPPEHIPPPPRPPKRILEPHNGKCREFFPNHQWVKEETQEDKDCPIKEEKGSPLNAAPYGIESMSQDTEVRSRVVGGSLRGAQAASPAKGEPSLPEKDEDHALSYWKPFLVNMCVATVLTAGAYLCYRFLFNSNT

HPTPβ, sequence (P23467 23-1997): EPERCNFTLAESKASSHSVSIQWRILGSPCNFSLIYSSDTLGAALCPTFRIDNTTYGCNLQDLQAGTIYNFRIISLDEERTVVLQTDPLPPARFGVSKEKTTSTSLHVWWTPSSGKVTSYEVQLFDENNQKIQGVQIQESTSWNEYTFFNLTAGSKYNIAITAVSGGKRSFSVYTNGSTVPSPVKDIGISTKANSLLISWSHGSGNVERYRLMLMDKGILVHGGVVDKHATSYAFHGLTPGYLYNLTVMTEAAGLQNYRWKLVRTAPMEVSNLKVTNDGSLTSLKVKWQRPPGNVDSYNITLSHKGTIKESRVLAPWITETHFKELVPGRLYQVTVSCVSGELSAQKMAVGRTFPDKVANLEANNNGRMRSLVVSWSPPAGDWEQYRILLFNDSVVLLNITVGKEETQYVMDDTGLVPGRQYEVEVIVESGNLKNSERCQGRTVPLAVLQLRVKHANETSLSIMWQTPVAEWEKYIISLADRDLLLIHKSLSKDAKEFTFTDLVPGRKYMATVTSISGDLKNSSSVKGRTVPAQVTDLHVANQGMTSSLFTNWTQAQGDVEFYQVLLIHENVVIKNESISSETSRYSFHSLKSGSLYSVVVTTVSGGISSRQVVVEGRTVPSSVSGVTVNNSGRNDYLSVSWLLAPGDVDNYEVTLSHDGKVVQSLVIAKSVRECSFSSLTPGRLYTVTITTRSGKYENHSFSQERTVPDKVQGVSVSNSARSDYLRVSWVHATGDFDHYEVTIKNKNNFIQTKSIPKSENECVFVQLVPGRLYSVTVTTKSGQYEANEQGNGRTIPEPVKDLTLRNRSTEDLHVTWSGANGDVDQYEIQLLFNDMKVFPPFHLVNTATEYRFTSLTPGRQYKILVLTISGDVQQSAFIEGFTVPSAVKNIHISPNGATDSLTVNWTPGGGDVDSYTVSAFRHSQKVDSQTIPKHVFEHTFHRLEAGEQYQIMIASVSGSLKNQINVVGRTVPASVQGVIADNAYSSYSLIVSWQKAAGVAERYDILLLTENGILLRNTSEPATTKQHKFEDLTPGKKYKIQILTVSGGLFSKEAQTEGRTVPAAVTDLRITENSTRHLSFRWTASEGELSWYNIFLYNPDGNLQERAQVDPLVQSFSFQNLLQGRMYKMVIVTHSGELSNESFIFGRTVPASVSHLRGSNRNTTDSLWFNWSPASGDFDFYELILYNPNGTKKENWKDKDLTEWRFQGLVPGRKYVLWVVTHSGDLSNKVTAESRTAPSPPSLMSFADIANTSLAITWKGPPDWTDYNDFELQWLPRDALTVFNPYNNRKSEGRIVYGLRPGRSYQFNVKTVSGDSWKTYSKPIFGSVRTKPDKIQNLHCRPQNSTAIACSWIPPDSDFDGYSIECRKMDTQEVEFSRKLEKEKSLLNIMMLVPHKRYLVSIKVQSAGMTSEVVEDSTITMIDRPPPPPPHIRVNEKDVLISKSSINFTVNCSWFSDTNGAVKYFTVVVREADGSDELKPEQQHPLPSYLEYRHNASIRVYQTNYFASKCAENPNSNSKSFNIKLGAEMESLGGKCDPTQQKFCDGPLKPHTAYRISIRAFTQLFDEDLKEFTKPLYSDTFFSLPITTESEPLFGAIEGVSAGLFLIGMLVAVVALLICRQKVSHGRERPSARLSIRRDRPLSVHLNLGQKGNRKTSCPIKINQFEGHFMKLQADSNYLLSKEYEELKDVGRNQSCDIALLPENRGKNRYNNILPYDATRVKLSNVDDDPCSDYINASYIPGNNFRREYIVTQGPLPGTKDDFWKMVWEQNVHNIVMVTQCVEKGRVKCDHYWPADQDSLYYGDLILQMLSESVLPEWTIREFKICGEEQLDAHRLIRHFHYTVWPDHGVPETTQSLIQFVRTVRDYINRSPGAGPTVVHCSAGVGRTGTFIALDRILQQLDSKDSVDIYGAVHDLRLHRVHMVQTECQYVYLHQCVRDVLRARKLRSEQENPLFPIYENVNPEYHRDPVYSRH

Row | SMILES | pIC50 (HPTPβ) | pIC50 (PTP1B)
1 | CC(C)(C)C(=O)N[C@@H](Cc1ccc(NS(=O)(=O)O)cc1)c1nc(-c2ccc3c(c2)OCCO3)cs1 [4-((S)-2-(4-(2,3-Dihydrobenzo[b][1,4]dioxin-6-yl)thiazol-2-yl)-2-pivalamidoethyl)phenylsulfamic acid] | 6.86 | 4.42
2 | COc1ccc(-c2csc([C@H](Cc3ccc(NS(=O)(=O)O)cc3)NC(=O)C(C)(C)C)n2)c(OC)c1 [4-((S)-2-(4-(2,4-Dimethoxyphenyl)thiazol-2-yl)-2-pivalamidoethyl)phenyl-sulfamic acid] | 7.07 | 4.37
3 | COc1cccc(-c2csc([C@H](Cc3ccc(NS(=O)(=O)O)cc3)NC(=O)C(C)(C)C)n2)c1 [4-((S)-2-(4-(3-Methoxyphenyl)thiazol-2-yl)-2-pivalamidoethyl)phenylsulfamic acid] | 6.96 | 4.40
4 | CC(C)(C)OC(=O)N[C@@H](Cc1ccc(NS(=O)(=O)O)cc1)c1nc(-c2cccc(C(F)(F)F)c2)cs1 [4-((S)-2-(tert-Butoxycarbonylamino)-2-(4-(3-(trifluoromethyl)phenyl)thiazol-2-yl)ethyl)-phenyl sulfamic acid] | 6.60 | 4.93
5 | CC(C)(C)OC(=O)N[C@@H](Cc1ccc(NS(=O)(=O)O)cc1)c1nc(-c2ccsc2)cs1 [4-((S)-2-(tert-Butoxycarbonylamino)-2-(4-(thiophen-3-yl)thiazol-2-yl)ethyl)phenyl sulfamic acid] | 7.35 | 4.84
6 | CCc1csc([C@H](Cc2ccc(NS(=O)(=O)O)cc2)NC(=O)[C@@H](NC(=O)OC)C(C)C)n1 [4-{(S)-2-(4-Ethylthiazol-2-yl)-2-[(S)-2-(methoxycarbonylamino)-3-methylbutanamido]-ethyl}phenylsulfamic acid] | 8.52 | 5.99

The next compounds have a higher pIC50 (HPTPβ) than those just listed; values first:

Row | pIC50 (HPTPβ) | pIC50 (PTP1B) | SMILES
7 | 9.00 | 5.71 | CCc1csc([C@H](Cc2ccc(NS(=O)(=O)O)cc2)NC(=O)[C@H](Cc2ccccc2)NC(C)=O)n1 [4-[(S)-2-((S)-2-Acetamido-3-phenylpropanamido)-2-(4-ethylthiazol-2-yl)ethyl]phenylsulfamic acid]
8 | 9.00 | 6.51 | COC(=O)N[C@@H](Cc1ccccc1)C(=O)N[C@@H](Cc1ccc(NS(=O)(=O)O)cc1)c1nc(C)c(C)s1 [4-{(S)-2-(4,5-Dimethylthiazol-2-yl)-2-[(S)-2-(methoxycarbonylamino)-3-phenyl-propanamido]ethyl}phenylsulfamic acid]
9 | 9.52 | 5.82 | CC(=O)N[C@@H](Cc1ccccc1)C(=O)N[C@@H](Cc1ccc(NS(=O)(=O)O)cc1)c1nc(C(C)(C)C)cs1 [4-[(S)-2-((S)-2-Acetamido-3-phenylpropanamido)-2-(4-tert-butylthiazol-2-yl)ethyl]phenylsulfamic acid]
10 | 9.70 | 5.87 | COC(=O)N[C@@H](Cc1ccccc1)C(=O)N[C@@H](Cc1ccc(NS(=O)(=O)O)cc1)c1csc(C2CC2)n1 [4-{(S)-2-(2-Cyclopropylthiazol-4-yl)-2-[(S)-2-(methoxy-carbonylamino)-3-phenylpropanamido]ethyl}phenylsulfamic acid]
11 | 9.70 | 7.15 | CCOC(=O)c1csc([C@H](Cc2ccc(NS(=O)(=O)O)cc2)NC(=O)[C@H](Cc2ccccc2)NC(=O)OC)n1 [4-{(S)-2-(4-(Ethoxycarbonyl)thiazol-2-yl)-2-[(S)-2-(methoxy-carbonylamino)-3-phenylpropanamido]ethyl}phenylsulfamic acid]
12 | 10.00 | 5.95 | CCc1nc([C@H](Cc2ccc(NS(=O)(=O)O)cc2)NC(=O)[C@H](Cc2ccccc2)NC(=O)OC)sc1C [4-{(S)-2-(4-Ethyl-5-methylthiazol-2-yl)-2-[(S)-2-(methoxy-carbonylamino)-3-phenyl-propanamido]ethyl}phenylsulfamic acid]
13 | 11.00 | 6.52 | COC(=O)N[C@@H](Cc1ccccc1)C(=O)N[C@@H](Cc1ccc(NS(=O)(=O)O)cc1)c1nc(C2CC2)cs1 [4-{(S)-2-(4-Cyclopropylthiazol-2-yl)-2-[(S)-2-(methoxy-carbonylamino)-3-phenylpropanamido]ethyl}phenylsulfamic acid]
